ChEMBL document CHEMBL4507299, “Data for DCP probe PF-04554878” (2021)

How the values were obtained:
[1] = test system: Tyrosine-protein kinase ABL1 (Homo sapiens), P00519 [H396P]
[2] = test system: Tyrosine-protein kinase ABL1 (Homo sapiens), P00519 [T315I]
[3] = molecular target: Aurora kinase B (Homo sapiens) (UniProt Q96GD4)
[4] = molecular target: Bone morphogenetic protein receptor type-1A (Homo sapiens) (UniProt P36894)
[5] = molecular target: Serine/threonine-protein kinase BRSK1 (Homo sapiens) (UniProt Q8TDC3)
[6] = molecular target: Calcium/calmodulin-dependent protein kinase type 1D (Homo sapiens) (UniProt Q8IU85)
[7] = molecular target: Cyclin-dependent kinase 7 (Homo sapiens) (UniProt P50613)
[8] = molecular target: Cyclin-dependent kinase 9 (Homo sapiens) (UniProt P50750)
[9] = molecular target: Cyclin-dependent kinase-like 3 (Homo sapiens) (UniProt Q8IVW4)
[10] = molecular target: Cyclin-dependent kinase-like 5 (Homo sapiens) (UniProt O76039)
[11] = molecular target: Macrophage colony-stimulating factor 1 receptor (Homo sapiens) (UniProt P07333)
[12] = molecular target: Death-associated protein kinase 1 (Homo sapiens) (UniProt P53355)
[13] = molecular target: Epithelial discoidin domain-containing receptor 1 (Homo sapiens) (UniProt Q08345)
[14] = molecular target: Discoidin domain-containing receptor 2 (Homo sapiens) (UniProt Q16832)
[15] = molecular target: Serine/threonine-protein kinase 17A (Homo sapiens) (UniProt Q9UEE5)
[16] = test system: Epidermal growth factor receptor (Homo sapiens), P00533 [G719C]
[17] = molecular target: Receptor tyrosine-protein kinase erbB-4 (Homo sapiens) (UniProt Q15303)
[18] = molecular target: Tyrosine-protein kinase Fes/Fps (Homo sapiens) (UniProt P07332)
[19] = test system: Receptor-type tyrosine-protein kinase FLT3 (Homo sapiens), P36888 [D835V]
[20] = test system: Receptor-type tyrosine-protein kinase FLT3 (Homo sapiens), P36888 [D835Y]
[21] = test system: Receptor-type tyrosine-protein kinase FLT3 (Homo sapiens), P36888 [N841I]
[22] = molecular target: Vascular endothelial growth factor receptor 3 (Homo sapiens) (UniProt P35916)
[23] = molecular target: MAP kinase-activated protein kinase 5 (Homo sapiens) (UniProt Q8IW41)
[24] = molecular target: Hepatocyte growth factor receptor (Homo sapiens) (UniProt P08581)
[25] = molecular target: Muscle, skeletal receptor tyrosine-protein kinase (Homo sapiens) (UniProt O15146)
[26] = molecular target: Serine/threonine-protein kinase Nek1 (Homo sapiens) (UniProt Q96PY6)
[27] = molecular target: Mitogen-activated protein kinase 12 (Homo sapiens) (UniProt P53778)
[28] = molecular target: Phosphatidylinositol 4,5-bisphosphate 3-kinase catalytic subunit beta isoform (Homo sapiens) (UniProt P42338)
[29] = molecular target: Phosphatidylinositol 4-phosphate 5-kinase type-1 gamma (Homo sapiens) (UniProt O60331)
[30] = molecular target: Serine/threonine-protein kinase PLK3 (Homo sapiens) (UniProt Q9H4B4)
[31] = molecular target: cGMP-dependent protein kinase 1 (Homo sapiens) (UniProt Q13976)
[32] = molecular target: Serine/threonine-protein kinase PRP4 homolog (Homo sapiens) (UniProt Q13523)
[33] = molecular target: Ribosomal protein S6 kinase alpha-4 (Homo sapiens) (UniProt O75676)
[34] = molecular target: Ribosomal protein S6 kinase beta-1 (Homo sapiens) (UniProt P23443)
[35] = molecular target: Serine/threonine-protein kinase SBK1 (Homo sapiens) (UniProt Q52WX2)
[36] = molecular target: Serine/threonine-protein kinase 35 (Homo sapiens) (UniProt Q8TDR2)
[37] = molecular target: Serine/threonine-protein kinase 36 (Homo sapiens) (UniProt Q9NRP7)
[38] = molecular target: Tyrosine-protein kinase TXK (Homo sapiens) (UniProt P42681)
[39] = molecular target: Wee1-like protein kinase 2 (Homo sapiens) (UniProt P0C1S8)
[40] = molecular target: Serine/threonine-protein kinase 32C (Homo sapiens) (UniProt Q86UX6)
[41] = molecular target: 5-hydroxytryptamine receptor 2B (Homo sapiens) (UniProt P41595); settings: Compound concentration 10.0 uM
[42] = molecular target: 5-hydroxytryptamine receptor 7 (Homo sapiens) (UniProt P34969); settings: Compound concentration 10.0 uM
[43] = molecular target: D(1B) dopamine receptor (Homo sapiens) (UniProt P21918); settings: Compound concentration 10.0 uM
[44] = molecular target: Histamine H2 receptor (Homo sapiens) (UniProt P25021); settings: Compound concentration 10.0 uM
[45] = molecular target: Alpha-1A adrenergic receptor (Homo sapiens) (UniProt P35348); settings: Compound concentration 10.0 uM
[46] = molecular target: Alpha-2B adrenergic receptor (Homo sapiens) (UniProt P18089); settings: Compound concentration 10.0 uM
[47] = Compound concentration 100.0 nM
[48] = Compound concentration 1000.0 nM

Serine/threonine-protein kinase PRP4 homolog (Homo sapiens), sequence (Q13523 whole entry): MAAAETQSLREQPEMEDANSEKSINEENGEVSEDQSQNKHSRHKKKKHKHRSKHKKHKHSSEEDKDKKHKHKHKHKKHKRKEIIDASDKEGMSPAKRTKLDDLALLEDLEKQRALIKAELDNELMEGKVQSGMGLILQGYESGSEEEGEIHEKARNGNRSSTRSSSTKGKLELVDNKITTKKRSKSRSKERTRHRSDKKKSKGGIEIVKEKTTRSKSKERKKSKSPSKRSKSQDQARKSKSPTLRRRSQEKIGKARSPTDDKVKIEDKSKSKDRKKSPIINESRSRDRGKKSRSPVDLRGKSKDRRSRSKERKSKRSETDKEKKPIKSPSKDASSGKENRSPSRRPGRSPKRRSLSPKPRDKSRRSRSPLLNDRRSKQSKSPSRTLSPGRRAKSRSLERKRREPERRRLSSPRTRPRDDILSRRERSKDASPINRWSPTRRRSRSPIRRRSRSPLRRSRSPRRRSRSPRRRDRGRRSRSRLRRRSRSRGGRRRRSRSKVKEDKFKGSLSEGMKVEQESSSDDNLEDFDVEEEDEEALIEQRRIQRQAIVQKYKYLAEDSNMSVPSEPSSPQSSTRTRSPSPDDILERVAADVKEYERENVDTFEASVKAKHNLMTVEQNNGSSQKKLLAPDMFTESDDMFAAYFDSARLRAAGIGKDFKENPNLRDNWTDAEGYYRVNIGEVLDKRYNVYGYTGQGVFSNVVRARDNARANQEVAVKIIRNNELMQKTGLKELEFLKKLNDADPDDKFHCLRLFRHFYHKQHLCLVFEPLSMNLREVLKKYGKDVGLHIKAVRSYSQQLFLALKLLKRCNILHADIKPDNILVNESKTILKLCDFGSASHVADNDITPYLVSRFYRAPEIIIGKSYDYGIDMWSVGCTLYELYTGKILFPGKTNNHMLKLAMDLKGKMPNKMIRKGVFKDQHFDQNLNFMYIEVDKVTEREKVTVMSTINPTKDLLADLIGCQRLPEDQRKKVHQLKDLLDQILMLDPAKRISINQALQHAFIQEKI
Serine/threonine-protein kinase BRSK1 (Homo sapiens), sequence (Q8TDC3 whole entry): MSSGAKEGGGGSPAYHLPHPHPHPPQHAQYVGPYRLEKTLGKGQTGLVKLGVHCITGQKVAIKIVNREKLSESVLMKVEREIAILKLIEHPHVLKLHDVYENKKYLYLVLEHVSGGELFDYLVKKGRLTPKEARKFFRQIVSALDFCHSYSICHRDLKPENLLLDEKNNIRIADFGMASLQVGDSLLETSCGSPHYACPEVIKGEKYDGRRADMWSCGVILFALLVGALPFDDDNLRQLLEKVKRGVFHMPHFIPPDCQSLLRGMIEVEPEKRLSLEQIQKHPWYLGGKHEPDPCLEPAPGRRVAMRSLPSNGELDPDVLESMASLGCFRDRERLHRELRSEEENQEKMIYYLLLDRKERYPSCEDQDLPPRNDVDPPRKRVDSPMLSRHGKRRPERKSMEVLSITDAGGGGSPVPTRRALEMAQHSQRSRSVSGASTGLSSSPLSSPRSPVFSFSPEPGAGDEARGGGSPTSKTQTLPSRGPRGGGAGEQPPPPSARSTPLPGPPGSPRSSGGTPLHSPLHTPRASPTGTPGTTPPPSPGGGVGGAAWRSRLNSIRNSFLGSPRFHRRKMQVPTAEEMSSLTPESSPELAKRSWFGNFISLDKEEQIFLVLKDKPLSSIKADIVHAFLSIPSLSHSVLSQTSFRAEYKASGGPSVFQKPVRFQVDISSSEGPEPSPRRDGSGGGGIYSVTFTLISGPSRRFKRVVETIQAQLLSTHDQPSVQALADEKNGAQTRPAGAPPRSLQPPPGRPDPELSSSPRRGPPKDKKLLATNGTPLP
Bone morphogenetic protein receptor type-1A (Homo sapiens), sequence (P36894 whole entry): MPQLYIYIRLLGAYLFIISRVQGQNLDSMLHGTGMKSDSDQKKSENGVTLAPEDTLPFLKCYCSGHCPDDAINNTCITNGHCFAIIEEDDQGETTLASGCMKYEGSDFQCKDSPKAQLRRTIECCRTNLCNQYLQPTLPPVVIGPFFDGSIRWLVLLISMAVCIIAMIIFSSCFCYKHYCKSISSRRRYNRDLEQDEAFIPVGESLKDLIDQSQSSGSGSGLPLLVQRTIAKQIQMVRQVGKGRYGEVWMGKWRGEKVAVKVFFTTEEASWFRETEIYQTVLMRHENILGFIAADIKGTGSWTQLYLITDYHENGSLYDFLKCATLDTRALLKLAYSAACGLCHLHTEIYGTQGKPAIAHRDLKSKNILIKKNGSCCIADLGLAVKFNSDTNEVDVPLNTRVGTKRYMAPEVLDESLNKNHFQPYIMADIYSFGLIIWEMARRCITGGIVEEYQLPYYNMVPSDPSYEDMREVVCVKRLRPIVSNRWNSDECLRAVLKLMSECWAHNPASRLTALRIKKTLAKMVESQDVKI
Calcium/calmodulin-dependent protein kinase type 1D (Homo sapiens), sequence (Q8IU85 whole entry, looked up): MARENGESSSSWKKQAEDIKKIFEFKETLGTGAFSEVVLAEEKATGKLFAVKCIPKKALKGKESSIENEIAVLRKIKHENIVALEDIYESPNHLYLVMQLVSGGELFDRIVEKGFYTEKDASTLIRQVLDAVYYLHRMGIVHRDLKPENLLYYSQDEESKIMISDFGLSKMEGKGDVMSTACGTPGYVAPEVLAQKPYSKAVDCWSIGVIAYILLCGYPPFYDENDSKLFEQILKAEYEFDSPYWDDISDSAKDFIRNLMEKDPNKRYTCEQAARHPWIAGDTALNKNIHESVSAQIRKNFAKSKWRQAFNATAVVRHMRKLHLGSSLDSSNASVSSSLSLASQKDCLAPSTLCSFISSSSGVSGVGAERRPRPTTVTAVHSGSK
Serine/threonine-protein kinase 32C (Homo sapiens), sequence (Q86UX6 whole entry): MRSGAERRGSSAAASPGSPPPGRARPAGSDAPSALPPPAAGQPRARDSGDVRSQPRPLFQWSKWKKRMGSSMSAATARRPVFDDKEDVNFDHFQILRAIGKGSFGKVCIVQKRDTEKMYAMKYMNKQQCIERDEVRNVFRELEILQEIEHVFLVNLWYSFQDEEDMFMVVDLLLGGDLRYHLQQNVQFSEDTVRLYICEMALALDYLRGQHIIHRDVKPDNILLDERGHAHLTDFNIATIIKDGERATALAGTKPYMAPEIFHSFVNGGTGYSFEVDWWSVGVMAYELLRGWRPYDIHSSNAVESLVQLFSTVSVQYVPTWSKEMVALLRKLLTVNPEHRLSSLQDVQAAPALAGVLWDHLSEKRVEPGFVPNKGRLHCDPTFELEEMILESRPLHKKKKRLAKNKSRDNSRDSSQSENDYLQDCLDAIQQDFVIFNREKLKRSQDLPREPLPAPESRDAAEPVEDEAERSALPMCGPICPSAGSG
Alpha-2B adrenergic receptor (Homo sapiens), sequence (P18089 whole entry): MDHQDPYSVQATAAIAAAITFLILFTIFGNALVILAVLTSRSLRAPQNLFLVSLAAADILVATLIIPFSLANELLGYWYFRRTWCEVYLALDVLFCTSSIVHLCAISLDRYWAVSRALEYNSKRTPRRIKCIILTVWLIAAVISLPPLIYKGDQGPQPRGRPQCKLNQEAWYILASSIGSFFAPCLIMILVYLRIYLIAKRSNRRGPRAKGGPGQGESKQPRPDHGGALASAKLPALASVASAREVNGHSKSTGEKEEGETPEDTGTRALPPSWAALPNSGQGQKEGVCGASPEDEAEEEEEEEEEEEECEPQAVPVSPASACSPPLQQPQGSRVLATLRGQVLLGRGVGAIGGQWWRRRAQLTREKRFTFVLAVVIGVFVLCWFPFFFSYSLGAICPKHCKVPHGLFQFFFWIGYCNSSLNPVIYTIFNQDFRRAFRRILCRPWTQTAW
Tyrosine-protein kinase TXK (Homo sapiens), sequence (P42681 whole entry): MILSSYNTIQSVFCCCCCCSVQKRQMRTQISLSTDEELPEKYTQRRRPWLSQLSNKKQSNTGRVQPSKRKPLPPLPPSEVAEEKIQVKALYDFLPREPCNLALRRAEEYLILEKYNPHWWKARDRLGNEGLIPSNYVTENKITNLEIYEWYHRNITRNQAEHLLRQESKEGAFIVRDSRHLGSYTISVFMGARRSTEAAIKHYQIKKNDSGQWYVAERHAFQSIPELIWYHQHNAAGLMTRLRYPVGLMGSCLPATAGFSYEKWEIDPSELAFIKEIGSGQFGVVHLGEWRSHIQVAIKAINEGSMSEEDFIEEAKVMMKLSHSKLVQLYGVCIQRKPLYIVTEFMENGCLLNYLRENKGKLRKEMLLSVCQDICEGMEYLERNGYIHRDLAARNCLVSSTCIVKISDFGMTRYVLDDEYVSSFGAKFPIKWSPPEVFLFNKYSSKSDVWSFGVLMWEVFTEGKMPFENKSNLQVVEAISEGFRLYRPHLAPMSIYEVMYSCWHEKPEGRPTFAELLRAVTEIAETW
Wee1-like protein kinase 2 (Homo sapiens), sequence (P0C1S8 whole entry, looked up): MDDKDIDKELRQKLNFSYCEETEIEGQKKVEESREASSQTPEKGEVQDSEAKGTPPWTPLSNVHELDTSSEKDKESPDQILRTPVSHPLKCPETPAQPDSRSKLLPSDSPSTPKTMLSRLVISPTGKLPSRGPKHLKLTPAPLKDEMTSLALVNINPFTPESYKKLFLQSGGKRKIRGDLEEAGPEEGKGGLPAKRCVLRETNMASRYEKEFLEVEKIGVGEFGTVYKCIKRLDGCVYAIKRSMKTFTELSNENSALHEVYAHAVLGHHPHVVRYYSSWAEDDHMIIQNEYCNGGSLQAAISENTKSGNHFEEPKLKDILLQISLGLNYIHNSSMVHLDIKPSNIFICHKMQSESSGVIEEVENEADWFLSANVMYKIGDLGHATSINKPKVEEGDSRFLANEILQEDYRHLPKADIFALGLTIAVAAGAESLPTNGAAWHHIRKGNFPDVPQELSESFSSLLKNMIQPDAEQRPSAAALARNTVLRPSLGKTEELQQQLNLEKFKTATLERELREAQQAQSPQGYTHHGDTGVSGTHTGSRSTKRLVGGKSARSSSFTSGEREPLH

CNC(=O)c1ccc(Nc2ncc(C(F)(F)F)c(NCc3nccnc3N(C)S(C)(=O)=O)n2)cc1 [DEFACTINIB]
inactive: residual activity [1, 47] 68% | residual activity [3, 47] 73% | residual activity [4, 47] 100% | residual activity [5, 47] 100% | residual activity [6, 47] 100% | residual activity [7, 47] 59% | residual activity [8, 47] 86% | residual activity [9, 47] 92% | residual activity [10, 47] 100% | residual activity [11, 47] 76% | residual activity [12, 47] 82% | residual activity [13, 47] 100% | residual activity [14, 47] 100% | residual activity [16, 47] 94% | residual activity [17, 47] 84% | residual activity [18, 47] 82% | residual activity [23, 47] 76% | residual activity [24, 47] 66% | residual activity [25, 47] 100% | residual activity [26, 47] 75% | residual activity [27, 47] 67% | residual activity [29, 47] 100% | residual activity [30, 47] 91% | residual activity [31, 47] 100% | residual activity [32, 47] 69% | residual activity [33, 47] 85% | residual activity [34, 47] 96% | residual activity [35, 47] 67% | residual activity [36, 47] 100% | residual activity [37, 47] 89% | residual activity [38, 47] 98% | residual activity [39, 47] 97% | residual activity [40, 47] 100% | inhibition [41] 5.73% | inhibition [42] 5.31% | inhibition [43] -7.46% | inhibition [44] 30.2% | inhibition [45] -4.42% | inhibition [46] 5.76%
active: residual activity [2, 47] 45% | residual activity [15, 47] 19% | residual activity [19, 47] 0.2% | residual activity [20, 47] 5.9% | residual activity [21, 47] 0% | residual activity [22, 47] 39% | residual activity [28, 47] 45%

CN(c1ccnc(CNc2nc(Nc3ccc4c(c3)CC(=O)N4)ncc2C(F)(F)F)n1)S(C)(=O)=O [PF-00911705]
inactive: residual activity [4, 48] 89% | residual activity [6, 48] 79% | residual activity [8, 48] 84% | residual activity [9, 48] 78% | residual activity [10, 48] 87% | residual activity [11, 48] 100% | residual activity [13, 48] 80% | residual activity [14, 48] 94% | residual activity [16, 48] 86% | residual activity [18, 48] 74% | residual activity [22, 48] 92% | residual activity [23, 48] 94% | residual activity [25, 48] 92% | residual activity [26, 48] 51% | residual activity [27, 48] 58% | residual activity [28, 48] 100% | residual activity [29, 48] 91% | residual activity [31, 48] 100% | residual activity [33, 48] 81% | residual activity [34, 48] 50% | residual activity [36, 48] 86% | residual activity [37, 48] 87% | residual activity [38, 48] 91% | residual activity [40, 48] 76% | inhibition [41] 13.5% | inhibition [42] -4.55% | inhibition [43] -0.97% | inhibition [44] 1.75% | inhibition [45] -3.55% | inhibition [46] -4.21%
active: residual activity [1, 48] 26% | residual activity [2, 48] 11% | residual activity [3, 48] 9.9% | residual activity [5, 48] 43% | residual activity [7, 48] 3.5% | residual activity [12, 48] 15% | residual activity [15, 48] 11% | residual activity [17, 48] 46% | residual activity [19, 48] 1.5% | residual activity [20, 48] 2% | residual activity [21, 48] 0% | residual activity [24, 48] 14% | residual activity [30, 48] 1.7% | residual activity [32, 48] 23% | residual activity [35, 48] 34% | residual activity [39, 48] 28%
